We go through 6 molecules from patent US8722929B2, “N-[2-amino-4-(phenylmethoxy)phenyl] amides and related compounds as potassium channel modulators” (Valeant Pharmaceuticals International, priority 2006, dated 2014).

The assay deals with T1, KCNQ 2/3 (Rattus norvegicus, UniProt O88943+O88944).
T1 construct: endogenous in cells; host or cells: PC-12 cells differentiated with NGF
Description: KCNQ 2/3 activator assay by rubidium (Rb+) efflux from NGF-differentiated PC-12 cells. The assay is classed as cell-based. The procedure:
Compounds of the following formula were assayed as KCNQ 2/3 activators by measuring rhubidium release.
PC-12 cells were grown at 37° C. and 5% CO2 in DMEM/F12 Medium supplemented with 10% horse serum, 5% fetal bovine serum, 2 mM glutamine, 100 U/ml penicillin, 100 U/ml streptomycin. They were plated in poly-D-lysine-coated 96-well cell culture microplates at a density of 40,000 cells/well and differentiated with 100 ng/ml NGF-7s for 2-5 days. For the assay, the medium was aspirated and the cells were washed once with 0.2 ml in wash buffer (25 mM Hepes, pH 7.4, 150 mM NaCl, 1 mM MgCl2, 0.8 mM NaH2PO4, 2 mM CaCl2). The cells were then loaded with 0.2 ml Rb^+ loading buffer (wash buffer plus 5.4 mM […], 5 mM glucose) and incubated at 37° C. for 2 h. Attached cells were quickly washed three times with buffer (same as Rb^+ loading buffer, but containing 5.4 mM KCl instead of RbCl) to remove extracellular Rb^+. Immediately following the wash, 0.2 ml of depolarization buffer (wash buffer plus 15 mM KCl) with or without compounds was added to the cells to activate efflux of potassium ion channels. After incubation for 10 min at room temperature, the supernatant was carefully removed and collected. Cells were lysed by the addition of 0.2 ml of lysis buffer (depolarization buffer plus 0.1% Triton X-100) and the cell lysates were also collected. If collected samples were not immediately analyzed for Rb^+ contents by atomic absorption spectroscopy (see below), they were stored at 4° C. without any negative effects on subsequent Rb^+ analysis.
The concentration of Rb^+ in the supernatants (Rb^+ sup) and cell lysates (Rb^+Lys) was quantified using an ICR8000 flame atomic absorption spectrometer (Aurora Biomed Inc., Vancouver, B.C.) under conditions defined by the manufacturer. One 0.05 ml samples were processed automatically from microtiter plates by dilution with an equal volume of Rb^+ sample analysis buffer and injection into an air-acetylene flame. The amount of Rb^+ in the sample was measured by absorption at 780 nm using a hollow cathode lamp as light source and a PMT detector. A calibration curve covering the range 0-5 mg/L Rb^+ in sample analysis buffer was generated with each set of plates. The percent Rb^+ efflux (F) was defined by F=[Rb^+Sup/(Rb^+Sup+Rb^+Lys)]×100%
The effect (E) of a compound was defined by: E=[(Fc−Fb)/(Fs−Fb)]×100% where the Fc is the efflux in the presence of compound in depolarization buffer, Fb is the efflux in basal buffer, and Fs is the efflux in depolarization buffer, and Fc is the efflux in the presence of compound in depolarization buffer. The effect (E) and compound concentration relationship was plotted to calculate an EC50 value, a compound's concentration for 50% of maximal Rb^+ efflux.

The mark [1] stands for this setting: Rb+ efflux, PC-12 cells, depolarization buffer 15 mM KCl, 10 min, compounds of formula A, read-out: EC50.
The mark [2] stands for this setting: Rb+ efflux, PC-12 cells, depolarization buffer 15 mM KCl, 10 min, compounds of formula B, read-out: EC50.

Like-named read-outs stand apart in the source and are kept apart here. Where only a bound is given, the exact number is not on record here.

In the case of `CC(C)(C)CC(=O)Nc1ccc(OCc2ccc(F)cc2)cc1N` [I, N-(2-amino-4-(4-fluorobenzyloxy)phenyl)-3,3-dimethylbutanamide], the EC50 under setting [1] was under 2000 nM. Same read-out and setting: as for `CC(C)(C)CC(=O)Nc1ccc(OCc2ccc(F)c(F)c2)cc1N` [II, N-(2-amino-4-(3,4-difluorobenzyloxy)phenyl)-3,3-dimethylbutanamide], the figure is under 2000 nM. On the same count and under the same terms, the same measure for `CC(C)(C)CC(=O)Nc1ccc(OCc2ccc(Cl)s2)cc1N` [III, N-(2-amino-4-((5-chlorothiophen-2-yl)methoxy)phenyl)-3,3-dimethylbutanamide]: under 2000 nM.

On to `COC(=O)Nc1ccc(OCc2ccc(F)cc2)cc1N` [V, Methyl 2-amino-4-(4-fluorobenzyloxy)phenylcarbamate], for which the EC50 under setting [2] is under 15000 nM. In the case of `CCOC(=O)Nc1ccc(NCc2ccc(F)cc2)nc1N` [flupirtine], the EC50 by setting is: under setting [1], under 15000 nM; under setting [2], under 15000 nM. Turning to `CCOC(=O)Nc1ccc(NCc2ccc(F)cc2)cc1N` [retigabine, N-[2-amino-4-(4-fluorobenzylamino)phenyl]carbamic acid, ethyl ester], the EC50 is under 2000 nM. The EC50 (Rb+ efflux, PC-12 cells, depolarization buffer 15 mM KCl, 10 min, compounds of formula B) was under 2000 nM.
